Reference: ChEMBL document CHEMBL1201862, “PubChem BioAssay data set” (2004)
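Step 1: Grow cells in 96-well plates. Step 2: Expose to compound for 48 hours at 5 concentrations. Step 3: Interpolate endpoints linearly; if unreached, use highest concentration. The concentration for 50% growth inhibition is given as GI50.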 Calls of active or inactive are those of the source. Cut-off read from the data, not from the text of the source: active = GI50 up to about 1.1 µM and inactive = higher.

Key:
Assay in all cases: NCI-60 cell line screen, 48 h
COLO 205 = system: COLO 205
K562 = system: K562
DU-145 = system: DU-145
SNB-75 = system: SNB-75
BT-549 = system: BT-549
M14 = system: M14
SK-OV-3 = system: SK-OV-3
NCI/ADR-RES = system: NCI/ADR-RES
OVCAR-5 = system: OVCAR-5
SK-MEL-28 = system: SK-MEL-28
DMS-273 = system: DMS-273
NCI-H226 = system: NCI-H226
786-0 = system: 786-0
TK-10 = system: TK-10
NCI-H23 = system: NCI-H23
SF-268 = system: SF-268
PC-3 = system: PC-3
OVCAR-4 = system: OVCAR-4
Hs-578T = system: Hs-578T
MDA-N = system: MDA-N

Measured: GI50

O=C1/C(=C/c2ccc(Cl)c(Cl)c2)CNC/C1=C\c1ccc(Cl)c(Cl)c1
inactive: COLO 205 5.27 µM | K562 3.1 µM | DU-145 49 µM | SNB-75 10.8 µM | BT-549 27.9 µM | M14 15.8 µM | SK-OV-3 40.7 µM | NCI/ADR-RES 3.66 µM | OVCAR-5 18.3 µM | SK-MEL-28 26.3 µM | DMS-273 5.73 µM | NCI-H226 21.9 µM | 786-0 2.39 µM | TK-10 31 µM | NCI-H23 8.51 µM | SF-268 3.95 µM | PC-3 13.9 µM | OVCAR-4 2.52 µM | Hs-578T 3.21 µM | MDA-N 20.4 µM
